Source: patent US6203822A, “Gallium-containing compounds for the treatment of infections caused by intracellular pathogens and pathogens causing chronic pulmonary infection” (priority 1996, dated 2001)

Assays:
[1] = test system: M. tuberculosis strain H37Ra in human macrophages; test: Growth inhibition of M. tuberculosis H37Ra in human monocyte derived macrophages (MDM); assay type: cell-based
Procedure: (§1) Monocyte derived macrophages (MDM) containing strain H37Ra were incubated for 24 h (FIG. 2A), 48 h (FIG. 2B) or 72 h (FIG. 2C) and macrophages containing the virulent strain Erdman were incubated for 24 h (FIG. 2D) or 48 h (FIG. 2E) in gallium nitrate.
(§2) The gallium-containing compounds can also be tested for their ability to inhibit intracellular pathogens in tissue culture assays. In general, in these assays, the macrophages are placed in culture and incubated with the intracellular pathogen at an approximate cell to pathogen ratio of preferably at least 1:1 to about 1:5 cells:pathogen. Exemplary culture conditions are provided in the assays detailed in the Examples. For assays assessing M. tuberculosis infection, freshly adherent monocytes, 12 day-old adherent MDMs, or freshly adherent alveolar macrophages are incubated with M. tuberculosis, MAI or other intracellular bacteria at a ratio of about 1:1 to about 1:5 (phagocyte:bacterium). For M. tuberculosis or MAI, the bacteria are incubated with the phagocyte for 2 hr at 37° C. in RPMI/HEPES media with 2.5% serum or human serum albumin (serum-free). The cells are washed to remove non-adherent bacteria and monolayers are replated with RPMI containing 1% autologous serum (to maintain phagocyte viability but not to sustain extracellular growth of bacteria). Gallium-containing compounds, such as gallium nitrate, with, or without, other agents such as antibiotics, cytokines etc., are added about 24 hr. later and mycobacterial growth in cell lysates is then assessed over the next several days either by the radiometric BACTEC system or by colony-forming units on agarose plates. In each experiment, growth is assessed relative to control monolayers where no drug has been added.
(§3) Mononuclear phagocytes from healthy adult volunteers who were tuberculin skin test negative and had no history of mycobacterial infection were isolated and cultured in Teflon wells according to the methods of Schlesinger, et al. (J. Immunol. 150:2920-2930, 1993). […]

[2] = test system: M. tuberculosis strain Erdman in human macrophages; test: Growth inhibition of M. tuberculosis Erdman in human monocyte derived macrophages (MDM); assay type: cell-based
Procedure: as §1, §2, §3

[3] = test system: M. tuberculosis in human alveolar macrophages; test: M. tuberculosis in human alveolar macrophages, gallium nitrate with or without anti-tuberculous antibiotics; assay type: cell-based
Procedure: as §2
Human alveolar macrophages were purified from healthy non-smoking adult volunteers and placed in monolayer culture. M. tuberculosis infected cells were treated with gallium nitrate as described in Example 2. Antituberculous antibiotics were added to wells alone or with gallium nitrate at 500 μM 24 h after M. tuberculosis infection. Antituberculous antibiotics tested included streptomycin (2.016 μg/ml), isoniazid (0.1 μg/ml), rifampin (2.0 μg/ml), and ethambutol (2.52 μg/ml) and the combination of antibiotics was denoted as SIRE. Antibiotics were obtained in lyophilized form from BACTEC. The antibiotics were reconstituted in sterile water per package instructions. With reference to FIG. 3, SIRE refers to combinations of streptomycin, isoniazid, rifampin and ethambutol while IR refers to combinations of Isoniazid and rifampin.
Infected macrophages were cultured for 24 h, 48 h, or 120 h. Growth index readings of combined supernatants and cell lysates were measured in the BACTEC 460 TB system. […] Since these antibiotics have a number of unpleasant side effects that are reduced at reduced concentrations of the drugs, combined therapies that permit these antibiotics to be administered at lower doses when combined with gallium nitrate is significant and may help to promote better drug compliance in patients infected with M. tuberculosis.

M. tuberculosis = test: Regrowth of M. tuberculosis in BACTEC system after gallium nitrate treatment (kill versus stasis); assay type: cell-based
Procedure: Example 4 and Example 5 detail exemplary methods used to determine whether the mycobacteria strains were killed by the addition of gallium nitrate. […] The bacteria were resuspended in 7H9 broth (BBL Microbiology Systems) or onto agar plates without gallium nitrate and incubated under conditions known to promote bacterial growth. In Example 4, the growth index for these cultures was assessed after 6 weeks to determine whether bacteria are inhibited or killed. […] In Example 5, M. tuberculosis-infected macrophages cell lysates were plated onto the surface of media able to support M. tuberculosis growth. Colony forming unit assays were counted to assess bacterial death or inhibition.
In Examples 2 and 3, gallium nitrate inhibited growth of M. tuberculosis. To determine whether the mycobacteria strains were killed by gallium nitrate or whether various concentrations of gallium nitrate were bacteriostatic, samples from the assay were tested in the BACTEC system. […] The bacteria, if present, was resuspended in 7H9 broth without gallium nitrate and incubated in the BACTEC system under conditions known in the art to promote bacterial growth.

[4] = test system: M. avium-intracellulare complex (MAI), patient isolate; test: Growth inhibition of MAI (patient isolate) in human alveolar macrophages; assay type: cell-based; settings: 500 μM, 24 hr and 48 hr
Procedure: M. avium-intracellulare complex (MAI) was obtained from the ATCC (#25291) and from a patient isolate from the State Hygienic laboratory at the University of Iowa Hospital and Clinics. Human alveolar macrophages were obtained from broncholavage of healthy patients and placed in monolayer culture. The bacteria were added to the cells in a bacteria to macrophage ratio of about 1:1. Growth index readings were obtained at 24 hr and 48 hr after gallium nitrate administration (500 μM) as described in Example 3 and used by Cavalieri, et al. (Antimicrob. Agents and Chemo. 39:1542-1545,1995).

[5] = infused in vivo; cited from earlier work

O=[N+]([O-])[O-].O=[N+]([O-])[O-].O=[N+]([O-])[O-].[Ga+3] [gallium nitrate]
inhibition of growth versus 24 h ([1]; 48 and 72 h): More marked inhibition of growth
inhibition of growth ([1]; 24 h): Inhibition of growth was observed
inhibition of growth ([1]; about 1 to about 1000 μM): dose-dependent inhibition of growth
inhibition of growth ([2]; 24 h): Inhibition of growth was observed
inhibition of growth ([2]; about 1 to about 1000 μM): dose-dependent inhibition of growth
inhibition of growth versus 24 h ([2]; text: 48 and 72 h, FIG. 2 legend: 24 and 48 h for Erdman): More marked inhibition of growth
augmentation of growth inhibition by antibiotics ([3]; gallium nitrate 500 μM plus suboptimal antibiotics (1/10 the standard concentrations), human alveolar macrophages): augments the ability of suboptimal concentrations of antibiotics
enhancement of antibiotic growth inhibition ([3]; suboptimal streptomycin, isoniazid, rifampin and ethambutol or suboptimal Isoniazid and rifampin): clear-cut enhancement in inhibition of M. tuberculosis growth
killing of bacteria (growth index after 6 weeks) (M. tuberculosis; growth index assessed after 6 weeks): the bacteria were killed
bacterial regrowth after gallium nitrate treatment (M. tuberculosis; resuspended in 7H9 broth without gallium nitrate, BACTEC): bacteria did not grow
growth inhibition of MAI [4]: inhibits the growth of MAI
growth inhibition of MAI ([4]; listed as Gallium nitrate): significant inhibition of MAI growth
binding to serum transferrin on infusion [5]: most of the gallium binds rapidly to serum transferrin
